The values that follow come from US11986532B2 (Arvinas Operations, Inc., priority 2021, dated 2024).

Structures are written as SMILES. Like-named read-outs stand apart in the source and are kept apart here.

This assay addresses T1, BCL6 (Homo sapiens, UniProt P41182).
T1 construct: endogenous in cells; host or cells: T47D breast cancer epithelial cells
Description: Immunofluorescence protocol for high content imaging of BCL6 (degradation) in T47D cells, 3 days compound treatment. In kind it is cell-based. The note with it: for DC50: read-out: Mean DC50 (nM)* category; for Dmax: read-out: Mean Dmax (%)** category. Here is the method: Immunofluorescence Protocol for High Content Imaging of BCL6
T47D cells were seeded in 100 μl volume of RPMI1640-10% FBS in a 96-well black/clear bottom plates for adherent lines (Corning #3904).
Day 1. T47D breast cancer epithelial cells were seeded at a density so that confluence is ˜70-90% at endpoint. Cells were seeded at 7K/0.1 ml/well the morning prior to the addition of exemplary bifunctional degradation compounds.
Day 2. Prepare an 11 point 3-fold serial dilution of exemplary bifunctional compound in DMSO and aliquot an appropriate volume to cell growth media to generate a 2× final concentration of exemplary bifunctional compound. Add an equal volume (0.1 ml) of 2× exemplary bifunctional compound/media mix to previously plated cells, for a final top concentration in aqueous cell growth media of 0.1 or 1 μM. Incubate for 3 days at 37° C., 5% CO2.
Day 5 Immunofluorescence. Discard cell media. Wash wells with 200 μl of room temperature phosphate-buffered saline (PBS). Prepared 4% paraformaldehyde (PFA) from 16% PFA (Electron Microscopy Sciences #15710) using 1×PBS. Fifty μl of 4% PF was added to each well and incubate for 15 minutes at room temperature to fix the cells. The PFA was aspirated and the cells washed twice with PBS (200 μl)).
Prepared 0.1% Triton X-100 in PBS using 10% triton X-100 stock. The cells were permeabilized by adding 100 ul of the 0.1% Triton X-100 in PBS to each well to permeabilize cells and incubating at room temperature for 15 minutes. Cells were washed twice with PBS.
Prepared 3% BSA/PBS (from Thermofisher #37515 Blocker BSA in TBS, 10%), and 100 ul was added to each well. The cells were incubated for at least 1 hour at room temperature.
Prepared 1% BSA/PBS using Blocker BSA/PBS, and the 3% BSA/PBS removed from the wells.
For no primary antibody controls, 50 μl 1% BSA/PBS was added.
Primary antibody (BCL6 Rb Ab, CST-14895, Cell Signaling) was diluted 1:300 in 1% BSA/PBS using Blocker BSA/PBS.
Fifty μl of primary antibody added to all remaining wells (i.e., all wells other than the primary antibody controls) and the cells were incubated overnight at 4° C. with slow orbital movement.
Day 6. Contents of the wells was removed and the cells washed four times with 200 ul PBS. 1% BSA/PBS was prepared using Blocker BSA in PBS.
Diluted secondary antibody goat anti-Rb IgG Alexa-488 1:1000, and cell mask-Alexa-647 1:3000 in 1% BSA/PBS in the same mix. Add 50 μl to each well and incubate at room temperature for 1 hour in the dark.
Cells were washed three times with 200 ul PBS, and then incubated for 10 minutes with 100 ul Hoechst dye at 1 μg/mL (20 mM stock) to stain cell nuclei. Wells were then washed with 200 μl PBS, and 100 ul of PBS was added to each well and the plate covered plate with a plastic opaque cover. Plates were stored at 4° C. and covered in aluminum foil until imaged.
Plates were equilibrated to room temperature prior to reading. The bottom of the plate was wiped with 70% isopropanol immediately prior to imaging.
10×, 4 fields/well, include Top hat smoothing in the analysis protocol.
16% paraformaldehyde: Electron Microscopy Sciences #15710
Hoechst: Thermofisher #62249
Blocker BSA in PBS, 10%: Thermofisher #37515
Blocker BSA in TBS, 10%: Thermofisher #37520
Goat anti-rabbit or mouse AlexaFluor-488: Thermofisher #A11008
Cell mask deep red AlexaFluor-647: Thermofisher #C10046
Wash buffer, PBS: 20×PBS, Thermofisher

[1] abbreviates: T47D cells, 3 days compound treatment.

Usually DC50 stands for the concentration at which degradation of the target reaches its halfway point. On to `CNC(=O)COc1cc2cc(Nc3nc(N4CCC(O[C@H]5C[C@H](N6C[C@@H](C)N(c7ccc8c(c7)C(=O)N(C7CCC(=O)NC7=O)C8=O)[C@@H](C)C6)C5)CC4)ncc3Cl)ccc2n(C(C)C)c1=O` (stereo partly drawn) [Compound 244, 2-({6-[(5-chloro-2-{4-[(1r,3r)-3-[(3R,5S)-4-[2-(2,6-dioxopiperidin-3-yl)-1,3-dioxo-2,3-dihydro-1H-isoindol-5-yl]-3,5-dimethylpiperazin-1-yl]cyclobutoxy]piperidin-1-yl}pyrimidin-4-yl)amino]-2-oxo-1-(propan-2-yl)-1,2-dihydroquinolin-3-yl}oxy)-N-methylacetamide], for which the “Mean Dmax (%)** category” value is “A (A >= 70)” and the DC50 lay within 10 to 50 nM.
What is called Dmax is the greatest extent of degradation seen. As for `CNC(=O)COc1cc2cc(Nc3nc(N4CCC(CN5CCC6(CC5)CN(c5cc7c(cc5F)C(=O)N(C5CCC(=O)NC5=O)C7)C6)CC4)ncc3Cl)ccc2n(C(C)C)c1=O` (stereo not drawn) [Compound 64, 2-{[6-({5-chloro-2-[4-({2-[2-(2,6-dioxopiperidin-3-yl)-6-fluoro-1-oxo-2,3-dihydro-1H-isoindol-5-yl]-2,7-diazaspiro[3.5]nonan-7-yl}methyl)piperidin-1-yl]pyrimidin-4-yl}amino)-2-oxo-1-(propan-2-yl)-1,2-dihydroquinolin-3-yl]oxy}-N-methylacetamide], under setting [1], the DC50 was less than 10 nM and the Dmax is 50 to 70%.
As to `CNC(=O)COc1cc2cc(Nc3nc(N4CCC(O[C@H]5CC[C@H](N6CCC(c7ccc8c(c7)C(=O)N(C7CCC(=O)NC7=O)C8=O)CC6)CC5)CC4)ncc3Cl)ccc2n(C(C)C)c1=O` (stereo partly drawn) [Compound 117, 2-[(6-{[5-chloro-2-(4-{[(1r,4r)-4-{4-[2-(2,6-dioxopiperidin-3-yl)-1,3-dioxo-2,3-dihydro-1H-isoindol-5-yl]piperidin-1-yl}cyclohexyl]oxy}piperidin-1-yl)pyrimidin-4-yl]amino}-2-oxo-1-(propan-2-yl)-1,2-dihydroquinolin-3-yl)oxy]-N-methylacetamide], under setting [1], the DC50 was less than 10 nM and the Dmax was in the range of 50 to 70%.
As for `CNC(=O)COc1cc2cc(Nc3nc(N4CCC5(CCN(CC6CCN(c7cccc8c7CN(C7CCC(=O)NC7=O)C8=O)CC6)C5)C4)ncc3Cl)ccc2n(C(C)C)c1=O` (stereo not drawn) [Compound 12, 2-{[6-({5-chloro-2-[7-({1-[2-(2,6-dioxopiperidin-3-yl)-1-oxo-2,3-dihydro-1H-isoindol-4-yl]piperidin-4-yl}methyl)-2,7-diazaspiro[4.4]nonan-2-yl]pyrimidin-4-yl}amino)-2-oxo-1-(propan-2-yl)-1,2-dihydroquinolin-3-yl]oxy}-N-methylacetamide], under setting [1], the DC50 is less than 10 nM and the greatest degradation seen (Dmax) was in the range of 50 to 70%.
On to `CNC(=O)COc1cc2cc(Nc3nc(N4CCN(CC5C6CN(c7ccc8c(c7)C(=O)N(C7CCC(=O)NC7=O)C8=O)CC56)CC4)ncc3Cl)ccc2n(C(C)C)c1=O` (stereo not drawn) [Compound 155, 2-{[6-({5-chloro-2-[4-({3-[2-(2,6-dioxopiperidin-3-yl)-1,3-dioxo-2,3-dihydro-1H-isoindol-5-yl]-3-azabicyclo [3.1.0]hexan-6-yl}methyl)piperazin-1-yl]pyrimidin-4-yl}amino)-2-oxo-1-(propan-2-yl)-1,2-dihydroquinolin-3-yl]oxy}-N-methylacetamide], for which, under setting [1], the DC50 was less than 10 nM and the Dmax is less than 50%.
On to `CNC(=O)COc1cc2cc(Nc3nc(N4CCC(N5CCC56CN(C5CCN(c7ccc8c(c7)CN(C7CCC(=O)NC7=O)C8=O)CC5)C6)CC4)ncc3Cl)ccc2n(C(C)C)c1=O` (stereo not drawn) [Compound 238, 2-{[6-({5-chloro-2-[4-(6-{1-[2-(2,6-dioxopiperidin-3-yl)-1-oxo-2,3-dihydro-1H-isoindol-5-yl]piperidin-4-yl}-1,6-diazaspiro[3.3]heptan-1-yl)piperidin-1-yl]pyrimidin-4-yl}amino)-2-oxo-1-(propan-2-yl)-1,2-dihydroquinolin-3-yl]oxy}-N-methylacetamide], for which the DC50 is less than 10 nM. For the setting “T47D”, the Dmax was in the range of 50 to 70%.
On to `CNC(=O)COc1cc2cc(Nc3nc(N4CCN(CC5CCN(c6ccc7c(c6F)CN(C6CCC(=O)NC6=O)C7=O)CC5)CC4)ncc3Cl)ccc2n(C(C)C)c1=O` (stereo not drawn) [Compound 25, 2-{[6-({5-chloro-2-[4-({1-[2-(2,6-dioxopiperidin-3-yl)-4-fluoro-1-oxo-2,3-dihydro-1H-isoindol-5-yl]piperidin-4-yl}methyl)piperazin-1-yl]pyrimidin-4-yl}amino)-2-oxo-1-(propan-2-yl)-1,2-dihydroquinolin-3-yl]oxy}-N-methylacetamide], for which, under setting [1], the DC50 was less than 10 nM and the Dmax was less than 50%.
On to `CNC(=O)COc1cc2cc(Nc3nc(N4CCC(O[C@H]5C[C@H](N6CCN(c7ccc8c(n7)CN(C7CCC(=O)NC7=O)C8=O)[C@@H](C)C6)C5)CC4)ncc3Cl)ccc2n(C(C)C)c1=O` (stereo partly drawn) [Compound 192], for which, under setting [1], the DC50 is less than 10 nM and the Dmax was not below 70%.
Turning to `CNC(=O)COc1cc2cc(Nc3nc(N4CCC(O[C@H]5C[C@H](N6CCC(c7ccc8c(c7F)CN(C7CCC(=O)NC7=O)C8=O)C(C)(C)C6)C5)CC4)ncc3Cl)ccc2n(C(C)C)c1=O` (stereo partly drawn) [Compound 187, 2-({6-[(5-chloro-2-{4-[(1r,3r)-3-{4-[2-(2,6-dioxopiperidin-3-yl)-4-fluoro-1-oxo-3H-isoindol-5-yl]-3,3-dimethylpiperidin-1-yl}cyclobutoxy]piperidin-1-yl}pyrimidin-4-yl)amino]-1-isopropyl-2-oxoquinolin-3-yl}oxy)-N-methylacetamide], under setting [1], the DC50 is less than 10 nM and the Dmax is not below 70%.
In the case of `CNC(=O)COc1cc2cc(Nc3nc(N4CCC(O[C@H]5C[C@H](N6CCC(c7ccc8c(c7F)CN([C@@H]7CCC(=O)NC7=O)C8=O)CC6)C5)CC4)ncc3Cl)ccc2n(C(C)C)c1=O` [Compound 384, 2-({6-[(5-chloro-2-{4-[(1r,3r)-3-(4-{2-[(3R)-2,6-dioxopiperidin-3-yl]-4-fluoro-1-oxo-2,3-dihydro-1H-isoindol-5-yl}piperidin-1-yl)cyclobutoxy]piperidin-1-yl}pyrimidin-4-yl)amino]-2-oxo-1-(propan-2-yl)-1,2-dihydroquinolin-3-yl}oxy)-N-methylacetamide], the DC50 is less than 10 nM. In addition, for the setting “T47D”, the Dmax was in the range of 50 to 70%.
With `CNC(=O)COc1cc2cc(Nc3nc(N4CCC(O[C@H]5C[C@H](N6CCC(c7ccc8c(c7F)CN([C@H]7CCC(=O)NC7=O)C8=O)CC6)C5)CC4)ncc3Cl)ccc2n(C(C)C)c1=O` [Compound 385, 2-({6-[(5-chloro-2-{4-[(1r,3r)-3-(4-{2-[(3S)-2,6-dioxopiperidin-3-yl]-4-fluoro-1-oxo-2,3-dihydro-1H-isoindol-5-yl}piperidin-1-yl)cyclobutoxy]piperidin-1-yl}pyrimidin-4-yl)amino]-2-oxo-1-(propan-2-yl)-1,2-dihydroquinolin-3-yl}oxy)-N-methylacetamide], the DC50 is less than 10 nM. In addition, the Dmax (T47D) was 50 to 70%.
In the case of `CNC(=O)COc1cc2c(F)c(Nc3cc(N4CCC(CN5CCC6(CN(c7ccc8c(c7)CN(C7CCC(=O)NC7=O)C8=O)C6)C(F)(F)C5)CC4)ncc3Cl)ccc2n(C(C)C)c1=O` (stereo not drawn) [Compound 251, 2-{[6-({5-chloro-2-[4-({2-[2-(2,6-dioxopiperidin-3-yl)-1-oxo-2,3-dihydro-1H-isoindol-5-yl]-5,5-difluoro-2,7-diazaspiro[3.5]nonan-7-yl}methyl)piperidin-1-yl]pyridin-4-yl}amino)-5-fluoro-2-oxo-1-(propan-2-yl)-1,2-dihydroquinolin-3-yl]oxy}-N-methylacetamide], the DC50 is less than 10 nM. Moreover, the Dmax (T47D) is not below 70%.
